# Source: patent US10981908B2, “Aryl hydrocarbon receptor (AHR) modulator compounds” (PHENEX PHARMACEUTICALS AG, priority 2017, dated 2021)
# Molecular target: T1, AhR (Homo sapiens, UniProt P35869)
# T1 construct: The HepG2 CYP1A1-Luc cells do express basal luciferase activity that can be increased via potent AhR agonists or decreased via potent AhR antagonists; endogenous in cells
# T1 sequence (P35869 11-848): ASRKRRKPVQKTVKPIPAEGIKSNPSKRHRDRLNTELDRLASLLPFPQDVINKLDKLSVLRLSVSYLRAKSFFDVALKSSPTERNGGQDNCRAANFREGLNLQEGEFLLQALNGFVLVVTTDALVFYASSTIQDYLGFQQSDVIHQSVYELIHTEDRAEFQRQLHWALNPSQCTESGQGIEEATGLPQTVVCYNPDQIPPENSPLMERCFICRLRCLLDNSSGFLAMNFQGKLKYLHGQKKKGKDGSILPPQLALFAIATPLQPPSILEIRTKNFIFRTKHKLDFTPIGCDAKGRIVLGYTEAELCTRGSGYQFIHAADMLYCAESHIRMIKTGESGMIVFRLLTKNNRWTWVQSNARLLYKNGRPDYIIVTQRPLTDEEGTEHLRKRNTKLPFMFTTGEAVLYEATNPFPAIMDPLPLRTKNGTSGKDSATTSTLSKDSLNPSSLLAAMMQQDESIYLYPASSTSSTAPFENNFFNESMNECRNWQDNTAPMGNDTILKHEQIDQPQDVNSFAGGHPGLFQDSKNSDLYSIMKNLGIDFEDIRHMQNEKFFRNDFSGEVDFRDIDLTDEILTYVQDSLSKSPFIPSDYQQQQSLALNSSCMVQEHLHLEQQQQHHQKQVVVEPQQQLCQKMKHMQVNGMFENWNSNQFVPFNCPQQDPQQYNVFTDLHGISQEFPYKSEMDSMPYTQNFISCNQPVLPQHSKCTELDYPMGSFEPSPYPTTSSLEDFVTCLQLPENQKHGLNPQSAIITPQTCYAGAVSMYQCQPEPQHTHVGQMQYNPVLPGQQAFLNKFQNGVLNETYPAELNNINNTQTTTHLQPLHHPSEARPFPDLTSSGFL
# Assay: AhR direct luciferase reporter assay in HepG2 cells (HepG2 CYP1A1-LUC)
# Format: cell-based
# Details: luciferase activity after 18 hours, medium with no exogenous AhR agonist or 10 nM VAF347, read-out: AhR potency (AhR antagonistic potency, IC50 class)
# From the text: AhR Direct Luciferase Reporter Assay in HepG2 Cells
# A stable cell line (HepG2 CYP1A1-LUC) was used in which part of the promoter region of the human CYP1A1 gene is stably integrated into the genome of human HepG2 hepatocytes (DSZM #ACC 180) in front of a Photinus pyralis Firefly Luciferase gene. A 1210 bp fragment comprising part of the human CYP1A1 promoter was isolated via SacI and BgIII restriction digestion from Lightswitch Clone S714555 (SwitchGearGenomics) and inserted between the SacI and BgIII sites in pGL4.30 (Promega #E8481) in front of the Firefly Luciferase gene. The resulting vector was linearized with NotI, transfected into HepG2 cells (DSMZ #ACC 180) and stably transfected clones selected with 250 μg/ml Hygromycin B. After repetitive rounds of subcloning and testing for robustly regulated luciferase activity after AhR agonist stimulation, a stable clonal HepG2 CYP1A1-Luc cell line was selected.
# The HepG2 CYP1A1-Luc cells do express basal luciferase activity that can be increased via potent AhR agonists or decreased via potent AhR antagonists, added to the growth medium of the cells.
# In typical reporter assays performed with this cell line, cells are grown in 96-well plates and AhR modulators are titrated into the growth medium in serial dilutions in RPMI-1640 Medium (Sigma #R7509) supplemented with 8,6% fetal calf serum (Sigma #F7524) and containing either no exogenous AhR agonist or 10 nM of the potent AhR agonist VAF347 (Calbiochem #182690). Cells are further cultivated for 18 hours and luciferase activities are determined from extracts of cells in buffers containing D-Luciferine and ATvP using a LUMIstar Optima microplate Luminometer from BMG Labtech.
row,SMILES,IC50 [nM]
1,"Cn1ncnc1C(=O)Nc1ccc2cc(-c3ccccc3S(C)(=O)=O)[nH]c2n1 [Example 1/23, 1-Methyl-N-(2-(2-(methylsulfonyl)phenyl)-1H-pyrrolo[2,3-b]pyridin-6-yl)-1H-1,2,4-triazole-5-carboxamide]",> 1000
2,Cn1ncnc1C(=O)Nc1ccc2cc(-c3ccccc3C#N)[nH]c2n1 [4/2],100 to 1000
3,"Cn1cnnc1C(=O)Nc1ccc2cc(-c3ccccc3C(F)(F)F)[nH]c2n1 [Example 1/21, 4-Methyl-N-(2-(2-(trifluoromethyl)phenyl)-1H-pyrrolo[2,3-b]pyridin-6-yl)-4H-1,2,4-triazole-3-carboxamide]",100 to 1000
4,"COc1ccccc1-c1cc2ccc(NC(=O)c3ncnn3C)nc2[nH]1 [Example 1/18, N-(2-(2-Methoxyphenyl)-1H-pyrrolo[2,3-b]pyridin-6-yl)-1-methyl-11H-1,2,4-triazole-5-carboxamide]",100 to 1000
5,"Cn1ncnc1C(=O)Nc1ccc2cc(-c3ccccc3C(F)(F)F)n(C)c2n1 [Example 3, 1-Methyl-N-(1-methyl-2-(2-(trifluoromethyl)phenyl)-1H-pyrrolo[2,3-b]pyridin-6-yl)-1H-1,2,4-triazole-5-carboxamide]",100 to 1000
6,"CN(C)C(=O)c1ccccc1-c1cc2ccc(NC(=O)c3ncnn3C)nc2[nH]1 [Example 8, N-(2-(2-(Dimethylcarbamoyl)phenyl)-1H-pyrrolo[2,3-b]pyridin-6-yl)-1-methyl-1H-1,2,4-triazole-5-carboxamide]",> 1000
7,"Cn1nccc1C(=O)Nc1ccc2cc(-c3cccc(C(F)(F)F)c3)[nH]c2n1 [Example 1/2, 1-Methyl-N-(2-(3-(trifluoromethyl)phenyl)-1H-pyrrolo[2,3-b]pyridin-6-yl)-1H-pyrazole-5-carboxamide]",100 to 1000
8,"Cn1ncnc1C(=O)Nc1ccc2cc(-c3ccccc3C(=O)O)[nH]c2n1 [Example 6, 2-(6-(1-Methyl-1H-1,2,4-triazole-5-carboxamido)-1H-pyrrolo[2,3-b]pyridin-2-yl)benzoic acid]",> 1000
9,"Cn1ncnc1C(=O)Nc1ccc2cc(-c3ncccc3C(F)(F)F)[nH]c2n1 [Example 1/17, 1-Methyl-N-(2-(3-(trifluoromethyl)pyridin-2-yl)-1H-pyrrolo[2,3-b]pyridin-6-yl)-1H-1,2,4-triazole-5-carboxamide]",> 1000
10,"Cn1nccc1C(=O)Nc1ccc2cc(-c3cccnc3C(F)(F)F)[nH]c2n1 [Example 1/3, 1-Methyl-N-(2-(2-(trifluoromethyl)pyridin-3-yl)-1H-pyrrolo[2,3-b]pyridin-6-yl)-1H-pyrazole-5-carboxamide]",100 to 1000
11,"O=C(Nc1ccc2cc(-c3ccccc3C(F)(F)F)[nH]c2n1)c1ncc2ccccn12 [Example 1/22, N-(2-(2-(trifluoromethyl)phenyl)-1H-pyrrolo[2,3-b]pyridin-6-yl)imidazo[1,5-a]pyridine-3-carboxamide]",< 100
12,"Cn1ncnc1C(=O)Nc1ccc2cc(-c3cccc4ccccc34)[nH]c2n1 [Example 1/13, 1-Methyl-N-(2-(naphthalen-1-yl)-1H-pyrrolo[2,3-b]pyridin-6-yl)-1H-1,2,4-triazole-5-carboxamide]",< 100
13,"Cn1cncc1C(=O)Nc1ccc2cc(-c3ccccc3C(F)F)[nH]c2n1 [Example 5, N-(2-(2-(Difluoromethyl)phenyl)-1H-pyrrolo[2,3-b]pyridin-6-yl)-1-methyl-1H-imidazole-5-carboxamide]",100 to 1000
14,"Cn1nccc1C(=O)Nc1ccc2cc(-c3ccccc3OC(F)(F)F)[nH]c2n1 [Example 1/4, 1-Methyl-N-(2-(2-(trifluoromethoxy)phenyl)-1H-pyrrolo[2,3-b]pyridin-6-yl)-1H-pyrazole-5-carboxamide]",> 1000
15,"Cn1ncnc1C(=O)Nc1ccc2cc(-c3ccccc3C(N)=O)[nH]c2n1 [Example 7, N-(2-(2-Carbamoylphenyl)-1H-pyrrolo[2,3-b]pyridin-6-yl)-1-methyl-1H-1,2,4-triazole-5-carboxamide]",100 to 1000
16,"Cn1ncnc1C(=O)Nc1ccc2cc(-c3cc(F)ccc3C(F)(F)F)[nH]c2n1 [Example 1/12, N-(2-(5-Fluoro-2-(trifluoromethyl)phenyl)-1H-pyrrolo[2,3-b]pyridin-6-yl)-1-methyl-1H-1,2,4-triazole-5-carboxamide]",< 100
17,"Cc1ccc(C(F)F)c(-c2cc3ccc(NC(=O)c4ncnn4C)nc3[nH]2)c1 [Example 1/35, N-(2-(2-(Difluoromethyl)-5-methylphenyl)-1H-pyrrolo[2,3-b]pyridin-6-yl)-1-methyl-1H-1,2,4-triazole-5-carboxamide]",< 100
18,Cn1ncnc1C(=O)Nc1ccc2c(F)c(-c3ccccc3C(F)F)[nH]c2n1 [4/6],100 to 1000

# Second part, the compound after the results:
row,IC50 [nM],SMILES
1,< 100,"Cn1ncnc1C(=O)Nc1ccc2cc(-c3ccc(F)cc3C(F)(F)F)[nH]c2n1 [Example 1/14, N-(2-(4-Fluoro-2-(trifluoromethyl)phenyl)-1H-pyrrolo[2,3-b]pyridin-6-yl)-1-methyl-1H-1,2,4-triazole-5-carboxamide]"
2,< 100,"O=C(Nc1ccc2cc(-c3ccccc3C(F)(F)F)[nH]c2n1)c1ccc(F)cc1 [Example 1/9, 4-Fluoro-N-(2-(2-(trifluoromethyl)phenyl)-1H-pyrrolo[2,3-b]pyridin-6-yl)benzamide]"
3,< 100,"Cn1ncnc1C(=O)Nc1ccc2cc(-c3cc(C4CC4)ccc3C(F)(F)F)[nH]c2n1 [Example 1/27, N-(2-(5-Cyclopropyl-2-(trifluoromethyl)phenyl)-1H-pyrrolo[2,3-b]pyridin-6-yl)-1-methyl-1H-1,2,4-triazole-5-carboxamide]"
4,< 100,CCn1ncnc1C(=O)Nc1ccc2cc(-c3ccccc3C(F)F)[nH]c2n1 [4/7]
5,< 100,"Cn1ncnc1C(=O)Nc1ccc2cc(-c3cccc(F)c3C(F)(F)F)[nH]c2n1 [Example 1/11, N-(2-(3-Fluoro-2-(trifluoromethyl)phenyl)-1H-pyrrolo[2,3-b]pyridin-6-yl)-1-methyl-1H-1,2,4-triazole-5-carboxamide]"
6,< 100,"Cn1ncnc1C(=O)Nc1ccc2cc(-c3ccccc3C(F)F)[nH]c2n1 [Example 1/15, N-(2-(2-(Difluoromethyl)phenyl)-1H-pyrrolo[2,3-b]pyridin-6-yl)-1-methyl-1H-1,2,4-triazole-5-carboxamide]"
7,< 100,"O=C(Nc1ccc2cc(-c3ccccc3C(F)(F)F)[nH]c2n1)c1ccccn1 [Example 1/7, N-(2-(2-(Trifluoromethyl)phenyl)-1H-pyrrolo[2,3-b]pyridin-6-yl) picolinamide]"
8,< 100,"Cn1ncnc1C(=O)Nc1ccc2cc(-c3ccccc3C3CC3)[nH]c2n1 [Example 4, N-(2-(2-Cyclopropylphenyl)-1H-pyrrolo[2,3-b]pyridin-6-yl)-1-methyl-1H-1,2,4-triazole-5-carboxamide]"
9,< 100,CCc1ccccc1-c1cc2ccc(NC(=O)c3ncnn3C)nc2[nH]1 [4/1]
10,< 100,Cn1ccnc1C(=O)Nc1ccc2cc(-c3ccccc3C(F)F)[nH]c2n1 [4/4]
11,< 100,"Cn1ncnc1C(=O)Nc1ccc2cc(-c3cc(Cl)ccc3C(F)(F)F)[nH]c2n1 [Example 1/26, N-(2-(5-Chloro-2-(trifluoromethyl)phenyl)-1H-pyrrolo[2,3-b]pyridin-6-yl)-1-methyl-11H-1,2,4-triazole-5-carboxamide]"
12,< 100,Cc1scnc1C(=O)Nc1ccc2cc(-c3ccccc3C(F)F)[nH]c2n1 [5/2]
13,< 100,"O=C(Nc1ccc2cc(-c3ccccc3C(F)(F)F)[nH]c2n1)c1ccccc1F [Example 1/8, 2-Fluoro-N-(2-(2-(trifluoromethyl)phenyl)-1H-pyrrolo[2,3-b]pyridin-6-yl)benzamide]"
